{"source": "paper PMC10038264", "about": "“A new family of glutamate-gated chloride channels in parasitic sea louse Caligus rogercresseyi: A subunit refractory to activation by ivermectin is dominant in heteromeric assemblies” (PLOS Pathogens, 2023)", "key": {"[1]": {"tested_on": "coexpressed CrGluCl-C:CrGluCl-A", "assay": "Voltage-clamp of oocytes coinjected with CrGluCl-C and CrGluCl-A", "format": "cell-based, Caligus rogercresseyi", "protocol": "(§1) Adult female Xenopus laevis frogs were anaesthetized by immersion in a1g/L solution tricaine (Ethyl 3-aminobenzoate methanesulfonate, Sigma) buffered to pH 7 with NaHCO3. Surgery was performed 30–40 min later, once the frog was completely anaesthetized judging by loss of reflexes. Ovarian lobes were removed through 1 cm abdominal incision and then kept at 16°C in Barth’s modified solution containing (in mM): 88 NaCl, 1 KCl, 0.4 CaCl2, 0.3 Ca (NO3)2, 0.8 MgSO4, 2.4 NaHCO3, 5 Hepes, 2.5 sodium pyruvate, 100 μg/ml gentamicin sulfate, 100 U/ml penicillin, 100 μg/ml streptomycin, 250 μg/ml amphotericin B, 0.22μm filtered and adjusted to pH 7.5 with Tris-Base. Osmolarity was brought to 220 mOsm with saccharose. The oocytes were manually defolliculated on the same day of extraction and the following day 20 ng cRNA in nuclease-free water was injected into stage V-VI oocytes using a FemtoJet microinjector (Eppendorf). Finally, the injected oocytes were stored in 96 well plates containing Barth’s modified solution and kept at 16°C until experiment day.\n(§2) Current measurements at controlled membrane potentials (voltage-clamp experiments) were performed using two intracellular microelectrodes in defolliculated Xenopus oocytes previously microinjected with 20 ng of cRNA. Voltage-clamp recording was performed at room temperature using a TURBO TEC-10CX amplifier (npi electronic GmbH, Tamm, Germany) and PClamp 10.6 software (Axon Instruments, USA), 1 to 4 days after oocyte injection. The oocytes were recorded in a chamber (Model RC-1Z, Warner Instrumenst, USA) under continuous superfusion. […] Reference was an Ag-AgCl electrode connected to the bath via a 3 M KCl in 3% agar bridge. Currents were recorded continuously during the experiments without interruptions for solution changes. […] The signal filtered at 1 kHz was acquired with a Digidata 1440A Analog-to-Digital Converter and analyzed with Axon pClamp 10.6 software. […]"}, "[2]": {"tested_on": "coexpressed CrGluCl-E:CrGluCl-B", "assay": "Voltage-clamp of oocytes coexpressing CrGluCl-E and CrGluCl-B", "format": "cell-based, Caligus rogercresseyi", "conditions": "for Iver response to activation: B:E ratio 1:1, 1μM ivermectin", "protocol": "as §1, §2"}, "[3]": {"tested_on": "coexpressed CrGluCl-E:CrGluCl-C", "assay": "Voltage-clamp of oocytes coexpressing CrGluCl-E and CrGluCl-C", "format": "cell-based, Caligus rogercresseyi", "conditions": "C:E ratio 1:1", "protocol": "as §1, §2"}, "CrGluCl-E": {"tested_on": "CrGluCl-E", "assay": "Two-electrode voltage-clamp of Xenopus oocytes expressing CrGluCl-E", "format": "cell-based, Caligus rogercresseyi", "conditions": "CrGluCl-E alone; glutamate up to 1mM, 1μM ivermectin", "protocol": "as §1, with “The oocytes were manually defolliculated on the same day of extraction and the following day 20 ng cRNA in nuclease-free water was injected into stage V-VI oocytes using a FemtoJet microinjector (Eppendorf). Finally, the injected oocytes were stored in 96 well plates containing Barth’s modified solution and kept at 16°C until experiment day.” left out\n(§3) Current measurements at controlled membrane potentials (voltage-clamp experiments) were performed using two intracellular microelectrodes in defolliculated Xenopus oocytes previously microinjected with 20 ng of cRNA. […] The oocytes were recorded in a chamber (Model RC-1Z, Warner Instrumenst, USA) under continuous superfusion. […] Currents were recorded continuously during the experiments without interruptions for solution changes. […] The signal filtered at 1 kHz was acquired with a Digidata 1440A Analog-to-Digital Converter and analyzed with Axon pClamp 10.6 software. […]"}, "CeGluClβ (CeGLC-2)": {"tested_on": "CeGluClβ (CeGLC-2)", "conditions": "cited from earlier work"}, "CrGluCl-A": {"target": "CrGluCl-A (Caligus rogercresseyi, UniProt A0A1W6LZ70)", "sequence (A0A1W6LZ70 entry or part of it)": "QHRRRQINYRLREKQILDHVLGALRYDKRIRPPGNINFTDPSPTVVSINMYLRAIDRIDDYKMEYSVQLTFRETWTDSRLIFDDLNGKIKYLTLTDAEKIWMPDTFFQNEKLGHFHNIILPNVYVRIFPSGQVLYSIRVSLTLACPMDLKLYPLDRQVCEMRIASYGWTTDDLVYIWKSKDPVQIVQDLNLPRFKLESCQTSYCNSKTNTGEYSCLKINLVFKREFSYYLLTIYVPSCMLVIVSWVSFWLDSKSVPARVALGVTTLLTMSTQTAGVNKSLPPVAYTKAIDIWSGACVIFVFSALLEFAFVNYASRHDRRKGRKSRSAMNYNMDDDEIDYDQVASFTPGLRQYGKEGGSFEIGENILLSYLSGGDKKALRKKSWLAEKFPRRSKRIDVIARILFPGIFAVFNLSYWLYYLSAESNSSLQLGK", "conditions": "cited from earlier work"}, "CrGluCl-C": {"tested_on": "CrGluCl-C", "format": "cell-based, Caligus rogercresseyi", "conditions": "for nH (ivermectin) / EC50: CrGluCl-C alone; for EC50: irreversible activation; for maximal current: CrGluCl-C, saturating concentration of agonist", "protocol": "as §1\n(§4) Current measurements at controlled membrane potentials (voltage-clamp experiments) were performed using two intracellular microelectrodes in defolliculated Xenopus oocytes previously microinjected with 20 ng of cRNA. Voltage-clamp recording was performed at room temperature using a TURBO TEC-10CX amplifier (npi electronic GmbH, Tamm, Germany) and PClamp 10.6 software (Axon Instruments, USA), 1 to 4 days after oocyte injection. The oocytes were recorded in a chamber (Model RC-1Z, Warner Instrumenst, USA) under continuous superfusion. […] Reference was an Ag-AgCl electrode connected to the bath via a 3 M KCl in 3% agar bridge. Currents were recorded continuously during the experiments without interruptions for solution changes. Oocytes were held at -30 mV and a voltage protocol consisting of a voltage drop to -100 mV for 25ms followed by a 360 ms ramp from -100 mV to 60mV applied with a period of 565 ms was continuously given. The signal filtered at 1 kHz was acquired with a Digidata 1440A Analog-to-Digital Converter and analyzed with Axon pClamp 10.6 software. The solution that bathed the oocytes during the electrophysiological recordings had the following composition (mM): 115 NaCl, 2 KCl, 1.8 CaCl2, 1 MgCl2, 10 HEPES pH 7.5 obtained with NaOH. For the low chloride solution, all the NaCl was replaced with the gluconate salt of Na. This decreases chloride concentration from 122.6 to 7.6 mM while increasing that of gluconate from 0 to 115 mM. The stock solutions of the drugs in dimethyl sulfoxide (DMSO) were: 10 mM emamectin, 10 mM ivermectin, 100 mM picrotoxin. These were diluted in bath solution to obtain final concentrations.\n(§5) The currents were normalized according to the extrapolated maximum current delivered by the Hill adjustment. In this way, the concentration that generates 50% of the maximum effect (EC50) and the Hill coefficient (nH) for each situation were obtained."}, "CrGluCl-D": {"tested_on": "CrGluCl-D", "format": "cell-based, Caligus rogercresseyi", "conditions": "CrGluCl-D spontaneous current", "protocol": "as §1, §4, §5"}, "[4]": {"tested_on": "coexpressed CrGluCl-A:CrGluCl-B", "assay": "Voltage-clamp of oocytes coexpressing CrGluCl-A and CrGluCl-B", "format": "cell-based, Caligus rogercresseyi", "protocol": "as §1, §4, §5"}, "[5]": {"tested_on": "coexpressed CrGluCl-C:CrGluCl-B", "assay": "Voltage-clamp of oocytes coexpressing CrGluCl-C and CrGluCl-B", "format": "cell-based, Caligus rogercresseyi", "conditions": "for Iver response to activation: B:C ratio 1:1, 1 μM ivermectin", "protocol": "as §1, §2"}, "[6]": {"target": "coexpressed CrGluCl-E:CrGluCl-A (Caligus rogercresseyi, UniProt A0A1W6LZ70)", "sequence (A0A1W6LZ70 entry or part of it)": "as above", "assay": "Voltage-clamp of oocytes coinjected with CrGluCl-E and CrGluCl-A", "format": "cell-based", "conditions": "E:A ratio 1:1", "protocol": "as §1, with “The oocytes were manually defolliculated on the same day of extraction and the following day 20 ng cRNA in nuclease-free water was injected into stage V-VI oocytes using a FemtoJet microinjector (Eppendorf). Finally, the injected oocytes were stored in 96 well plates containing Barth’s modified solution and kept at 16°C until experiment day.” left out\nas §3"}}, "note": "Like-named read-outs stand apart in the source and are kept apart here.", "data": [{"compound": "ivermectin", "values": [{"measurement": "Iver response to activation", "setting": "[1]; C:A 1:1, 60mV", "result": "Sensitive"}, {"measurement": "Iver response to activation", "setting": "[1]; C:A 1:1, -80mV", "result": "Sensitive"}, {"measurement": "Iver response to activation", "setting": "[2]", "result": "without any activating effect"}, {"measurement": "Iver response to activation", "setting": "[2]; listed as Iver", "result": "Insensitive"}, {"measurement": "nH (ivermectin)", "setting": "[3]", "result": "2.1 ± 0.67"}, {"measurement": "nH (ivermectin)", "setting": "[3]; listed as Iver", "result": "2.1 ± 0.7"}, {"measurement": "response (current activation)", "setting": "CrGluCl-E", "result": "failed to show any response"}, {"measurement": "nH (ivermectin inhibition)", "setting": "CeGluClβ (CeGLC-2); CeGLC-2", "result": -1.74}, {"measurement": "IC50", "setting": "CeGluClβ (CeGLC-2); read-out: IC50 ivermectin inhibition of glutamate activated current, CeGLC-2", "result": 1.28, "unit": "µM"}, {"measurement": "nH (ivermectin)", "setting": "CrGluCl-A", "result": 2.1}, {"measurement": "EC50", "setting": "CrGluCl-A; listed as Ivermectin, read-out: EC50 Ivermectin / avermectin irreversible activation", "result": 0.181, "unit": "µM"}, {"measurement": "EC50", "setting": "CrGluCl-A; read-out: EC50 Ivermectin / avermectin irreversible activation", "result": "~0.2", "unit": "µM"}, {"measurement": "nH (ivermectin)", "setting": "CrGluCl-C", "result": 2.1}, {"measurement": "EC50", "setting": "CrGluCl-C; listed as Ivermectin", "result": "0.031 ± 0.014", "unit": "µM"}, {"measurement": "EC50", "setting": "CrGluCl-C; read-out: EC50 Ivermectin", "result": "0.0311 ± 0.0144", "unit": "µM"}, {"measurement": "nH (ivermectin)", "setting": "CrGluCl-C; listed as Ivermectin", "result": "2.1 ± 0.67"}, {"measurement": "maximal current", "setting": "CrGluCl-C", "result": "3.7 ± 1.3", "unit": "μA"}, {"measurement": "direct activating effect", "setting": "CrGluCl-D", "result": "lack a direct activating effect"}, {"measurement": "Iver response to activation", "setting": "[4]; A:B ratio 1:1", "result": "Insensitive"}, {"measurement": "Iver response to activation", "setting": "[4]; A:B ratio 1:4", "result": "Insensitive"}, {"measurement": "Iver response to activation", "setting": "[4]; A:B ratio 4:1", "result": "Insensitive"}, {"measurement": "Iver response to activation", "setting": "[5]", "result": "failed to elicit a significant response"}, {"measurement": "Iver response to activation", "setting": "[5]; listed as Iver", "result": "Insensitive"}, {"measurement": "Iver response to activation", "setting": "[6]", "result": "Sensitive"}]}, {"compound": "N[C@@H](CCC(=O)O)C(=O)O", "note": "[glutamate, L-glutamate]", "values": [{"measurement": "EC50", "setting": "[1]; C:A 1:1, 60 mV, single Hill equation", "result": "7.9 ± 0.9", "unit": "µM"}, {"measurement": "EC50", "setting": "[2]; B:E ratio 1:1, 60 mV", "result": "534 ± 239", "unit": "µM"}, {"measurement": "EC50", "setting": "[3]", "result": "36.5 ± 22.5", "unit": "µM"}, {"measurement": "response (current activation)", "setting": "CrGluCl-E", "result": "failed to show any response"}, {"measurement": "EC50", "setting": "CeGluClβ (CeGLC-2); read-out: EC50 glutamate, CeGluClβ", "result": 380, "unit": "µM"}, {"measurement": "nH (glutamate), previously published", "setting": "CrGluCl-A", "result": 1.33}, {"measurement": "EC50", "setting": "CrGluCl-A; read-out: EC50 Glutamate, previously published", "result": 6.9, "unit": "µM"}, {"measurement": "maximal current", "setting": "CrGluCl-C", "result": "3.5 ± 1.7", "unit": "μA"}, {"measurement": "direct activating effect", "setting": "CrGluCl-D", "result": "lack a direct activating effect"}, {"measurement": "EC50", "setting": "[4]; A:B ratio 1:1", "result": "82 ± 35", "unit": "µM"}, {"measurement": "EC50", "setting": "[4]; A:B ratio 1:4", "result": "72 ± 47", "unit": "µM"}, {"measurement": "EC50", "setting": "[4]; A:B ratio 4:1", "result": "89 ± 47", "unit": "µM"}, {"measurement": "EC50", "setting": "[5]; B:C ratio 1:1", "result": "53 ± 18.8", "unit": "µM"}, {"measurement": "nH (glutamate)", "setting": "[6]", "result": "2.5 ± 0.3"}]}]}
